Laboratory results from patent publication US20230391779A1, “BICYCLIC COMPOUNDS, COMPOSITIONS AND USE THEREOF” (Betta Pharmaceuticals Co., Ltd., priority 2020, published 2023).

Experiments:
TEAD-YAP/TAZ interaction = assay: CTGF ELISA assay; assay type: cell-based, human; details: CTGF in culture supernatant of NCI-H2052 cells, 24 hours with compound
Method in brief: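 NCI-H2052 cells treated 24 h at 37 °C with compound (10000–0.61 nM, 0.5% DMSO); secreted CTGF in supernatant measured by sandwich ELISA (OD 450 nm) against a standard curve. EC50 fitted from CTGF concentration-response curves.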

NCI-H226 cells = assay: BRDU assay (cell proliferation); assay type: cell-based; details: Homo sapiens, proliferation inhibition, 1% FBS medium
Experimental: PerkinElmer's DELFIA® Cell proliferation kit (PerkinElmer, Cat: AD0200) was used to detect the inhibition on the proliferation of NCI-H226 cells (ATCC, CRL-5826). • a) Seeded 1500/well for NCI-H226 cell into a 96-well plate. • b) After 24 hours, compound was added to wells with 1% FBS medium conditions. The final testing concentrations of test compounds were […]. • c) NCI-H226 cells were incubated for 72 hours in incubator. • d) Diluted BrdU Labeling Reagent 100-fold with medium and added […] per well. The NCI-H226 cells were incubated 24 h in 5% CO2 at 37° C. incubator. • e) Detect cell proliferation according BrdU kit, and the luminescence signal value of each well on the multifunctional microplate reader was readed.
Data analysis: • Use GraphPad Prism 6 software to calculate IC50 and plot effect-dose curve of compounds.
Y=Bottom+(Top−Bottom)/(1+10^((LogIC50−X)×HillSlope)). • Y was the inhibition %, • X was the log concentration of compounds.
Inhibition %=(signalHC−signalcomp)/(signalHC−signalLC); • HC (high control) was DMSO group, • LC (low control) was 10 uM staurosporine group, • Comp was administration group.
IC50 data obtained for the Example compounds are provided in Table 7, and the inhibition curve in NCI-H226 cell line are as shown in FIG. 1-7, wherein X axis is compound concentration (nm), Y axis is the inhibition %.

[1] = test system: NCI-H226 human lung squamous cell carcinoma xenograft; assay: In vivo efficacy, subcutaneous NCI-H226 xenograft model; design: species or system BALB/c nude mice; details: QD, oral, tumor volume at day 28
Experimental: In vivo pharmacodynamic and efficacy studies of compound 5, compound 6, and compound 124 in the subcutaneous NCI-H226 human lung squamous cell carcinoma xenograft model on BALB/c nude mice.
(§1) Each mouse (D000521 BALB/c-Nu, GemPharmatech Co., Ltd.) was inoculated subcutaneously at the right flank with NCI-H226 tumor cells (ATCC, CRL-5826) (1×107) in 0.2 mL of PBS with Matrigel (Corning, 356234) (1:1) for tumor development. Treatments were started when the average tumor size reached approximately 100-150 mm3. The test article was administered to the mice orally once a day from the day of grouping, total 28 days (QD×28 Days). Body weight change of animals was monitored regularly as an indicator of drug safety. Tumor volumes were measured twice weekly in two dimensions using a caliper, and the volume was expressed in mm3 using the formula “V=(LλW^2)/2”, where V is the tumor volume, L is the tumor length (the longest tumor dimension) and W is the tumor width (the longest tumor dimension perpendicular to L). Therapeutic efficacy was evaluated by tumor growth inhibition TGI (%)·TGI (%)=[1−(Ti−T0)/(Vi−V0)]×100; Ti is the average tumor volume of a treatment group on a given day, TO is the average tumor volume of the treatment group on day 0, Vi is the average tumor volume of the vehicle control group on the same day with Ti, and V0 is the average tumor volume of the vehicle group on day 0.

[2] = Body weight change in NCI-H226 xenograft model; assay type: in vivo, BALB/c nude mice; details: daily oral dosing, 28 days, mice bearing NCI-H226 tumor
Experimental: as §1

[3] = Pharmacokinetics in plasma following PO cassette dosing in mice; assay type: in vivo; details: mouse, Balb/C female mice, 5 mg/kg; for AUC: blood collection 30 min, 2 h, 4 h
Experimental: Adult Balb/C female mice (6-7 weeks, Vitalriver) were received to cassette dosing of the test compounds with 10-20% DMSO, 10% Solutol (Kolliphor HS 15, Beijing Fengli Jingqiu Pharmaceutical Co., Ltd.) and 80-70% H2O as excipients. The mice (n=3) were giving oral administration (intragastric administration) at a dose of 5 mg/kg. Time of blood collection: 30 min, 2 h, 4 h. About 0.1 mL of whole blood was collected from retro-orbital venous plexus, and placed into tubes that contained EDTA as an anticoagulant. The samples were centrifuged at 4° C. and 4000 rpm for 10 min. The plasma was transferred into centrifuge tubes, and stored at −20° C. before being analyzed. Concentrations of test compounds in the plasma samples were analyzed with liquid chromatography-tandem mass spectrometry (LC-MS/MS). Plasma concentration-time data of individual animals was analyzed using Microsoft Excel 2010. Non-compartmental model was introduced in concentration analysis. The pharmacokinetic parameters of the test compounds were calculated using WinNonlin (version 4.1; Pharsight) software.

Structure (SMILES)	EC50 (TEAD-YAP/TAZ interaction)	IC50 (NCI-H226 cells)	Cmax [3]	AUC [3]	TGI (%) ([1]; 0.5 mg/kg)	TGI (%) ([1]; 2 mg/kg)	TGI (%) ([1]; 10 mg/kg)	TGI (%) ([1]; 50 mg/kg)	body weight loss [2]
C=CC(=O)N1CCC(n2nc(-c3ccc(C(F)(F)F)cc3)c3ccccc32)C1 (stereo not drawn) [Compound 3, 1-(3-(3-(4-(trifluoromethyl)phenyl)-1H-indazol-1-yl)pyrrolidin-1-yl)prop-2-en-1-one]	30.4 nM	19.5 nM	–	–	–	–	–	–	–
C=C(F)C(=O)N1CC(n2nc(-c3ccc(C(F)(F)F)cc3)c3cccnc32)C1 [Compound 5, 2-fluoro-1-(3-(3-(4-(trifluoromethyl)phenyl)-1H-pyrazolo[3,4-b]pyridin-1-yl)azetidin-1-yl)prop-2-en-1-one]	3 nM	5.33 nM	–	–	40.3%	76.9%	101.3%	105.9%	no significant body weight loss
C=C(F)C(=O)N1CC(n2nc(-c3ccc(C(F)(F)F)cc3)c3ncccc32)C1 [Compound 6, 2-fluoro-1-(3-(3-(4-(trifluoromethyl)phenyl)-1H-pyrazolo[4,3-b]pyridin-1-yl)azetidin-1-yl)prop-2-en-1-one]	2 nM	140 nM	–	–	–	77.1%	88.6%	–	no significant body weight loss
C=CC(=O)N1CC(n2nc(-c3ccc(C(F)(F)F)cc3)c3cccnc32)C1 [Compound 30, 1-(3-(3-(4-(trifluoromethyl)phen-yl)-1H-pyrazolo[3,4-b]pyridin-1-yl)azetidin-1-yl)prop-2-en-1-one]	12 nM	55.7 nM	–	–	–	–	–	–	–

More lines, main results first:

EC50 (TEAD-YAP/TAZ interaction)	IC50 (NCI-H226 cells)	Cmax [3]	AUC [3]	Structure (SMILES)	TGI (%) ([1]; 0.5 mg/kg)	TGI (%) ([1]; 2 mg/kg)	TGI (%) ([1]; 10 mg/kg)	TGI (%) ([1]; 50 mg/kg)	body weight loss [2]
7 nM	114 nM	1190 ng/mL	4070 ng·h/mL	C=C(C)C(=O)N1CC(n2nc(-c3ccc(C(F)(F)F)cc3)c3cccnc32)C1 [Compound 73, 2-methyl-1-(3-(3-(4-(trifluoro-methyl)phenyl)-1H-pyrazolo[3,4-b]pyridin-1-yl)azetidin-1-yl)prop-2-en-1-one]	–	–	–	–	–
2 nM	2.32 nM	–	–	C=C(F)C(=O)N1CC(n2nc(-c3ccc(C(F)(F)F)cc3)c3ncn(C)c(=O)c32)C1 [Compound 80, 1-(1-(2-fluoroacryloyl)azetidin-3-yl)-6-methyl-3-(4-(trifluorometh-yl)phenyl)-1,6-dihydro-7H-pyrazolo[4,3-d]pyrimidin-7-one]	–	–	–	–	–
14 nM	20.7 nM	7190 ng/mL	24300 ng·h/mL	C=C(F)C(=O)N1CC(n2nc(-c3ccc(C(F)(F)F)nc3)c3cccnc32)C1 [Compound 124, 2-fluoro-1-(3-(3-(6-(trifluoro-methyl)pyridin-3-yl)-1H-pyrazolo[3,4-b]pyridin-1-yl)-azetidin-1-yl)prop-2-en-1-one]	–	67.3%	–	–	no significant body weight loss
6 nM	12.7 nM	–	–	C=C(F)C(=O)N1CC(n2nc(-c3ccc(C(F)(F)F)nc3)c3ncccc32)C1 [Compound 132, 2-fluoro-1-(3-(3-(6-(trifluoro-methyl)pyridin-3-yl)-1H-pyrazolo[4,3-b]pyridin-1-yl)-azetidin-1-yl)prop-2-en-1-one]	–	–	–	–	–
28 nM	–	1210 ng/mL	4010 ng·h/mL	C=C(F)C(=O)N1CC(n2c(=O)n(-c3ccc(C(F)(F)F)nc3)c3ccc(C)nc32)C1 [Compound 243, 3-(1-(2-fluoroacryloyl)azetidin-3-yl)-5-methyl-1-(6-(trifluoromethyl)pyridin-3-yl)-1,3-dihydro-2H-imidazo[4,5-b]pyridin-2-one]	–	–	–	–	–
